Experimental data: ChEMBL document CHEMBL1649488, “In vitro activities of echinocandins against Candida krusei determined by three methods: MIC and minimal fungicidal concentration measurements and time-kill studies” (2009)
In brackets after ≈: the same amount, converted by molar mass. Starred links: 1 amine or outer side, 2 acyl side, 3 side chain; linkers in the order of their positions; H or OH if unused. Positions of bridges follow the written chain, without caps; N, C: chain ends. Non-standard residues stand in square brackets, D forms with d. Residues, ends and D or L forms follow the SMILES beside them. *: point of attachment. pTerphenylCO(4''-OnC5H11) = CCCCCOc1ccc(-c2ccc(-c3ccc(C(=O)*)cc3)cc2)cc1; Orn(4R-OH,5R-OH) = O=C([C@H](C[C@@H](O)[C@@H](O)N[*:3])N[*:1])[*:2]; hTyr(3S-OH,4S-OH) = N[C@H](C(=O)O)[C@H](O)[C@@H](O)c1ccc(O)cc1; Pro(3S-OH,4S-Me) = C[C@H]1CN[C@H](C(=O)O)[C@H]1O; Hyp = O=C(O)[C@@H]1C[C@@H](O)CN1

How the values were obtained:
Type in all cases: functional
Pichia kudriavzevii [1] = experiment: Antifungal activity against Candida krusei ATCC 6258 bloodstream forms assessed as minimum concentration producing >= 100% growth reduction after 24 hrs by M27-A3 microdilution method; details: ATCC 6258, 24 h
Pichia kudriavzevii [2] = experiment: Fungicidal activity against Candida krusei ATCC 6258 bloodstream forms after 48 hrs by M27-A3 microdilution method
Pichia kudriavzevii [3] = experiment: Antifungal activity against Candida krusei ATCC 6258 bloodstream forms assessed as minimum concentration producing >= 50% growth reduction after 24 hrs by M27-A3 microdilution method; details: ATCC 6258, 24 h
Pichia kudriavzevii [4] = experiment: Antifungal activity against Candida krusei CK1 bloodstream forms after 24 hrs by time-kill analysis; details: CK1, 24 h
Pichia kudriavzevii [5] = experiment: Fungicidal activity against Candida krusei CK1 bloodstream forms after 24 hrs by time-kill analysis; details: CK1, 24 h
Pichia kudriavzevii [6] = experiment: Antifungal activity against Candida krusei CK2 bloodstream forms after 24 hrs by time-kill analysis; details: CK2, 24 h
Pichia kudriavzevii [7] = experiment: Fungicidal activity against Candida krusei CK2 bloodstream forms after 24 hrs by time-kill analysis; details: CK2, 24 h
Pichia kudriavzevii [8] = experiment: Antifungal activity against Candida krusei CK6 bloodstream forms after 24 hrs by time-kill analysis; details: CK6, 24 h
Pichia kudriavzevii [9] = experiment: Fungicidal activity against Candida krusei CK6 bloodstream forms after 24 hrs by time-kill analysis; details: CK6, 24 h
Pichia kudriavzevii [10] = experiment: Antifungal activity against Candida krusei CK18 bloodstream forms after 24 hrs by time-kill analysis; details: CK18, 24 h
Pichia kudriavzevii [11] = experiment: Fungicidal activity against Candida krusei CK18 bloodstream forms after 24 hrs by time-kill analysis; details: CK18, 24 h
Pichia kudriavzevii [12] = experiment: Antifungal activity against Candida krusei EU123 bloodstream forms after 24 hrs by time-kill analysis; details: EU123, 24 h
Pichia kudriavzevii [13] = experiment: Fungicidal activity against Candida krusei EU123 bloodstream forms after 24 hrs by time-kill analysis; details: EU123, 24 h
Pichia kudriavzevii [14] = experiment: Antifungal activity against Candida krusei EU220 bloodstream forms after 24 hrs by time-kill analysis; details: EU220, 24 h
Pichia kudriavzevii [15] = experiment: Fungicidal activity against Candida krusei EU220 bloodstream forms after 24 hrs by time-kill analysis; details: EU220, 24 h
Pichia kudriavzevii [16] = experiment: Antifungal activity against Candida krusei CY118 bloodstream forms after 24 hrs by time-kill analysis; details: CY118, 24 h
Pichia kudriavzevii [17] = experiment: Fungicidal activity against Candida krusei CY118 bloodstream forms after 24 hrs by time-kill analysis; details: CY118, 24 h
Pichia kudriavzevii [18] = experiment: Antifungal activity against Candida krusei ATCC 6258 bloodstream forms after 24 hrs by time-kill analysis; details: ATCC 6258, 24 h
Pichia kudriavzevii [19] = experiment: Fungicidal activity against Candida krusei ATCC 6258 bloodstream forms after 24 hrs by time-kill analysis; details: ATCC 6258, 24 h
Pichia kudriavzevii [20] = experiment: Antifungal activity against Candida krusei ATCC 6258 bloodstream forms assessed as time to achieve 50% fungal growth reduction at 0.12 mg/L by time-kill analysis
Pichia kudriavzevii [21] = experiment: Antifungal activity against Candida krusei ATCC 6258 bloodstream forms assessed as time to achieve 90% fungal growth reduction at 0.12 mg/L by time-kill analysis
Pichia kudriavzevii [22] = experiment: Antifungal activity against Candida krusei ATCC 6258 bloodstream forms assessed as time to achieve 99% fungal growth reduction at 0.12 mg/L by time-kill analysis
Pichia kudriavzevii [23] = experiment: Antifungal activity against Candida krusei ATCC 6258 bloodstream forms assessed as time to achieve 99.9% fungal growth reduction at 0.12 mg/L by time-kill analysis
Pichia kudriavzevii [24] = experiment: Antifungal activity against Candida krusei ATCC 6258 bloodstream forms assessed as time to achieve 50% fungal growth reduction at 0.5 mg/L by time-kill analysis
Pichia kudriavzevii [25] = experiment: Antifungal activity against Candida krusei ATCC 6258 bloodstream forms assessed as time to achieve 90% fungal growth reduction at 0.5 mg/L by time-kill analysis
Pichia kudriavzevii [26] = experiment: Antifungal activity against Candida krusei ATCC 6258 bloodstream forms assessed as time to achieve 99% fungal growth reduction at 0.5 mg/L by time-kill analysis
Pichia kudriavzevii [27] = experiment: Antifungal activity against Candida krusei ATCC 6258 bloodstream forms assessed as time to achieve 99.9% fungal growth reduction at 0.5 mg/L by time-kill analysis
Pichia kudriavzevii [28] = experiment: Antifungal activity against Candida krusei ATCC 6258 bloodstream forms assessed as time to achieve 50% fungal growth reduction at 2 mg/L by time-kill analysis
Pichia kudriavzevii [29] = experiment: Antifungal activity against Candida krusei ATCC 6258 bloodstream forms assessed as time to achieve 90% fungal growth reduction at 2 mg/L by time-kill analysis
Pichia kudriavzevii [30] = experiment: Antifungal activity against Candida krusei ATCC 6258 bloodstream forms assessed as time to achieve 99% fungal growth reduction at 2 mg/L by time-kill analysis
Pichia kudriavzevii [31] = experiment: Antifungal activity against Candida krusei ATCC 6258 bloodstream forms assessed as time to achieve 99.9% fungal growth reduction at 2 mg/L by time-kill analysis
Pichia kudriavzevii [32] = experiment: Antifungal activity against Candida krusei ATCC 6258 bloodstream forms assessed as time to achieve 50% fungal growth reduction at 8 mg/L by time-kill analysis
Pichia kudriavzevii [33] = experiment: Antifungal activity against Candida krusei ATCC 6258 bloodstream forms assessed as time to achieve 90% fungal growth reduction at 8 mg/L by time-kill analysis
Pichia kudriavzevii [34] = experiment: Antifungal activity against Candida krusei ATCC 6258 bloodstream forms assessed as time to achieve 99% fungal growth reduction at 8 mg/L by time-kill analysis
Pichia kudriavzevii [35] = experiment: Antifungal activity against Candida krusei ATCC 6258 bloodstream forms assessed as time to achieve 99.9% fungal growth reduction at 8 mg/L by time-kill analysis
Pichia kudriavzevii [36] = experiment: Antifungal activity against Candida krusei ATCC 6258 bloodstream forms assessed as minimum concentration producing >= 50% growth reduction after 48 hrs by M27-A3 microdilution method; details: ATCC 6258, 48 h
Pichia kudriavzevii [37] = experiment: Antifungal activity against Candida krusei ATCC 6258 bloodstream forms assessed as minimum concentration producing >= 100% growth reduction after 48 hrs by M27-A3 microdilution method; details: ATCC 6258, 48 h

CCCCCOc1ccc(-c2ccc(-c3ccc(C(=O)N[C@H]4C[C@@H](O)[C@@H](O)NC(=O)[C@@H]5[C@@H](O)[C@@H](C)CN5C(=O)[C@H]([C@@H](C)O)NC(=O)[C@H]([C@H](O)[C@@H](O)c5ccc(O)cc5)NC(=O)[C@@H]5C[C@@H](O)CN5C(=O)[C@H]([C@@H](C)O)NC4=O)cc3)cc2)cc1 [ANIDULAFUNGIN] ({pTerphenylCO(4''-OnC5H11)}-[Orn(4R-OH,5R-OH)]T[Hyp][hTyr(3S-OH,4S-OH)]T[Pro(3S-OH,4S-Me)]; lactam 1-C) showed an MIC50 (Pichia kudriavzevii [1]) of 0.12 µg/mL (≈ 0.105 µM), an MIC90 (Pichia kudriavzevii [1]) of 0.25 µg/mL (≈ 0.219 µM) and an MFC50 (Pichia kudriavzevii [2]) of 0.25 µg/mL (≈ 0.219 µM). It also gave an MFC90 (Pichia kudriavzevii [2]) of 0.5 µg/mL (≈ 0.438 µM), an MFC (Pichia kudriavzevii [2]; Pichia kudriavzevii, ATCC 6258, 48 h) of 0.12 µg/mL (≈ 0.105 µM) and an MIC50 (Pichia kudriavzevii [3]) of 0.12 µg/mL (≈ 0.105 µM). It also gave an MIC90 (Pichia kudriavzevii [3]) of 0.12 µg/mL (≈ 0.105 µM), an MIC (Pichia kudriavzevii [4]) of 0.12 µg/mL (≈ 0.105 µM) and an MFC (Pichia kudriavzevii [5]) of 0.5 µg/mL (≈ 0.438 µM). For the same compound, the MIC (Pichia kudriavzevii [6]) was 0.06 µg/mL (≈ 0.0526 µM), the MFC (Pichia kudriavzevii [7]) was 0.5 µg/mL (≈ 0.438 µM) and the MIC (Pichia kudriavzevii [8]) was 0.12 µg/mL (≈ 0.105 µM). It also gave an MFC (Pichia kudriavzevii [9]) of 0.25 µg/mL (≈ 0.219 µM), an MIC (Pichia kudriavzevii [10]) of 0.12 µg/mL (≈ 0.105 µM) and an MFC (Pichia kudriavzevii [11]) of 0.5 µg/mL (≈ 0.438 µM). It also gave an MIC (Pichia kudriavzevii [12]) of 0.12 µg/mL (≈ 0.105 µM), an MFC (Pichia kudriavzevii [13]) of 0.5 µg/mL (≈ 0.438 µM) and an MIC (Pichia kudriavzevii [14]) of 0.12 µg/mL (≈ 0.105 µM). The MFC (Pichia kudriavzevii [15]) was 0.12 µg/mL (≈ 0.105 µM), the MIC (Pichia kudriavzevii [16]) was 0.5 µg/mL (≈ 0.438 µM) and the MFC (Pichia kudriavzevii [17]) was 8 µg/mL (≈ 7.02 µM). It also gave an MIC (Pichia kudriavzevii [18]) of 0.03 µg/mL (≈ 0.0263 µM), an MFC (Pichia kudriavzevii [19]) of 0.25 µg/mL (≈ 0.219 µM) and a Time (Pichia kudriavzevii [20]) of 7.7 h. It also gave a Time (Pichia kudriavzevii [21]) of 25.5 h, a Time (Pichia kudriavzevii [22]) of over 48 h and a Time (Pichia kudriavzevii [23]) of over 48 h. For the same compound, the Time (Pichia kudriavzevii [24]) was 6.7 h, the Time (Pichia kudriavzevii [25]) was 22.4 h and the Time (Pichia kudriavzevii [26]) was over 48 h. The Time (Pichia kudriavzevii [27]) was over 48 h, the Time (Pichia kudriavzevii [28]) was 1.9 h and the Time (Pichia kudriavzevii [29]) was 6.4 h. It also gave a Time (Pichia kudriavzevii [30]) of 12.7 h, a Time (Pichia kudriavzevii [31]) of 19.1 h and a Time (Pichia kudriavzevii [32]) of 2.1 h. It also gave a Time (Pichia kudriavzevii [33]) of 6.9 h, a Time (Pichia kudriavzevii [34]) of 13.8 h and a Time (Pichia kudriavzevii [35]) of 20.68 h. The MIC50 (Pichia kudriavzevii [36]) was 0.12 µg/mL (≈ 0.105 µM), the MIC90 (Pichia kudriavzevii [36]) was 0.25 µg/mL (≈ 0.219 µM) and the MIC50 (Pichia kudriavzevii [37]) was 0.25 µg/mL (≈ 0.219 µM). It also gave an MIC90 (Pichia kudriavzevii [37]) of 0.5 µg/mL (≈ 0.438 µM).
